Earlier results, collected in US9238611B2, “Process for separating aryl carboxylic acids” (Reliance Industries Limited, priority 2012, dated 2016).

Conditions: per one milligram of the terephthalate salt

In the case of COc1ccc2c3c1O[C@H]1C(=O)CC[C@@]4(O)[C@@H](C2)N(C)CC[C@]314.COc1ccc2c3c1O[C@H]1C(=O)CC[C@@]4(O)[C@@H](C2)N(C)CC[C@]314.O=C(O)c1ccc(C(=O)O)cc1 [terephthalas oxycodonae], the “amount of hydrochloridum oxycodonae pharmacologically equivalent to one milligram” value is given as 1.13 mg.
